According to ChEMBL document CHEMBL4673362, “Design, synthesis, and biological evaluation of 2,6,7-substituted pyrrolo[2,3-d]pyrimidines as cyclin dependent kinase inhibitor in pancreatic cancer cells” (Bioorg Med Chem Lett, 2021):
Converted amounts (≈) assume the structure as drawn. The source made the active and inactive calls. No cut-off for these calls is given here.

Tests used:
[1] = target: Cyclin-dependent kinase 4/cyclin D1 (Homo sapiens, UniProt P11802); assay: Inhibition of CDK4/cyclin D1 (unknown origin); format: protein-complex assay
Sequence of Cyclin-dependent kinase 4/cyclin D1 (P11802 whole entry): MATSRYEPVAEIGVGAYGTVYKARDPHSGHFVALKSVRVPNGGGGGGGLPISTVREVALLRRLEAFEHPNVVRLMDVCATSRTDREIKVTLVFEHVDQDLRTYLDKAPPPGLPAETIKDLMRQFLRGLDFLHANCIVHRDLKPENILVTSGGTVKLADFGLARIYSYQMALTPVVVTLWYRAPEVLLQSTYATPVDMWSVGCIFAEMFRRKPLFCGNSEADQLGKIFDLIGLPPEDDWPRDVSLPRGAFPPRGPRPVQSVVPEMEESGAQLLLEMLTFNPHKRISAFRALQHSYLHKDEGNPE
Sequence of Cyclin-dependent kinase 4/cyclin D1 (P24385 whole entry, further chain): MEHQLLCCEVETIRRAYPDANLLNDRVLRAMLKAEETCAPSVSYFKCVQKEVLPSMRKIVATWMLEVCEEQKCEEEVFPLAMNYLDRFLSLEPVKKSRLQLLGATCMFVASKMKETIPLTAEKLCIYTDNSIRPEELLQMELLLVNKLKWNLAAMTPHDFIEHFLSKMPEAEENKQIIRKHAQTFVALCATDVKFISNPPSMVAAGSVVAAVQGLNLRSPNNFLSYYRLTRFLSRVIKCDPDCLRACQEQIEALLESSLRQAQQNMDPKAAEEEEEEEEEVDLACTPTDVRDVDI

[2] = system: MIA PaCa-2; assay: Antiproliferative activity against human MIA PaCa-2 cells assessed as inhibition of cell growth by MTT assay; format: functional, cell-based
[3] = target: Cyclin-dependent kinase 6 (Homo sapiens) (UniProt Q00534); assay: Inhibition of CDK6 (unknown origin) at 1 uM
Sequence of Cyclin-dependent kinase 6 (Homo sapiens) (Q00534 whole entry): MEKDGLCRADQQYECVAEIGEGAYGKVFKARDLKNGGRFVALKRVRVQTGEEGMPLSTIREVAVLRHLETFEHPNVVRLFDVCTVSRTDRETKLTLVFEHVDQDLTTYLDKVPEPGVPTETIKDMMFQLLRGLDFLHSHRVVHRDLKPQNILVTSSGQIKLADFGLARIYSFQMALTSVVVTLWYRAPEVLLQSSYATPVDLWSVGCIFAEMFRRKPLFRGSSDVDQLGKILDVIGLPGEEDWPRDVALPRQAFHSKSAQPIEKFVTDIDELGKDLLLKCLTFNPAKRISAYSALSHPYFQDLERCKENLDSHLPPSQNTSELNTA

[4] = target: Cyclin-dependent kinase 4 (Homo sapiens) (UniProt P11802); assay: Inhibition of CDK4 (unknown origin) at 1 uM
Sequence of Cyclin-dependent kinase 4 (Homo sapiens) (P11802 whole entry): as the sequence (P11802 whole entry) above

[5] = system: BXPC-3; assay: Antiproliferative activity against human BxPC-3 cells assessed as inhibition of cell growth by MTT assay; format: functional, cell-based
[6] = target: CDK6/cyclin D1 (Homo sapiens, UniProt Q00534); assay: Inhibition of CDK6/cyclin D1 (unknown origin); format: protein-complex assay
Sequence of CDK6/cyclin D1 (P24385 whole entry): as the sequence (P24385 whole entry, further chain) above
Sequence of CDK6/cyclin D1 (Q00534 whole entry): as the sequence (Q00534 whole entry) above

[7] = system: MIA PaCa-2; assay: Cell cycle arrest in human MIA PaCa-2 cells assessed as accumulation at G1 phase at 2.5 uM (reference value: 44.09 %); format: functional
[8] = system: MIA PaCa-2; assay: Cell cycle arrest in human MIA PaCa-2 cells assessed as accumulation at G1 phase at 1.6 uM (reference value: 44.09 %); format: functional
[9] = system: MIA PaCa-2; assay: Cell cycle arrest in human MIA PaCa-2 cells assessed as accumulation at G1 phase at 0.8 uM (reference value: 44.09 %); format: functional
[10] = system: MIA PaCa-2; assay: Cell cycle arrest in human MIA PaCa-2 cells assessed as accumulation at G2 phase at 2.5 uM (reference value: 10.64 %); format: functional
[11] = system: MIA PaCa-2; assay: Cell cycle arrest in human MIA PaCa-2 cells assessed as accumulation at G2 phase at 1.6 uM (reference value: 10.64 %); format: functional
[12] = system: MIA PaCa-2; assay: Cell cycle arrest in human MIA PaCa-2 cells assessed as accumulation at G2 phase at 0.8 uM (reference value: 10.64 %); format: functional
[13] = system: MIA PaCa-2; assay: Cell cycle arrest in human MIA PaCa-2 cells assessed as accumulation at S phase at 2.5 uM (reference value: 45.27 %); format: functional
[14] = system: MIA PaCa-2; assay: Cell cycle arrest in human MIA PaCa-2 cells assessed as accumulation at S phase at 1.6 uM (reference value: 45.27 %); format: functional
[15] = system: MIA PaCa-2; assay: Cell cycle arrest in human MIA PaCa-2 cells assessed as accumulation at S phase at 0.8 uM (reference value: 45.27 %); format: functional
[16] = target: Cyclin-dependent kinase 9 (Homo sapiens) (UniProt P50750); assay: Inhibition of CDK9 (unknown origin) at 1 uM relative to control
Sequence of Cyclin-dependent kinase 9 (Homo sapiens) (P50750 whole entry): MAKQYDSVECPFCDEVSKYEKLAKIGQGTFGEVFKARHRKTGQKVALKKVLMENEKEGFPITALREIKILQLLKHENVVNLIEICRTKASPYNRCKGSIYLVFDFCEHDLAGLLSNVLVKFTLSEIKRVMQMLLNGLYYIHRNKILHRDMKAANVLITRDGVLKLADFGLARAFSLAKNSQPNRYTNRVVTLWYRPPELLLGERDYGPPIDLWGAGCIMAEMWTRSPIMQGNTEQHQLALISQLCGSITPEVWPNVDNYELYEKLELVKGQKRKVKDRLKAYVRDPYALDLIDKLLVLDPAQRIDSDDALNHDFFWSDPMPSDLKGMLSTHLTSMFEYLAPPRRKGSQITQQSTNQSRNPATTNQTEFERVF

[17] = Solubility of the compound at pH 7.4; format: physicochemical; details: buffer
[18] = Permeability of the compound at pH 7.4 by PAMPA; format: ADME; details: read-out: permeability
[19] = Permeability of the compound at pH 5.0 by PAMPA; format: ADME; details: read-out: permeability
[20] = Metabolic stability in rat liver microsomes assessed as half life; format: ADME, Microsome
[21] = Metabolic stability in human liver microsomes assessed as half life; format: ADME, Microsome

With `CN(C)C(=O)c1cc2cnc(Nc3ccccc3)nc2n1C1CCCC1` the IC50 [1] was 0.0929 µM and the IC50 [2] was 54.9 µM.

For `O=C(Nc1ccccc1C(F)(F)F)c1cc2cnc(Nc3ccc(N4CCNCC4)cn3)nc2n1C1CCCC1`, the inhibition [3] was “Active”, the inhibition [4] was “Active” and the IC50 [5] was 8.04 µM. The IC50 [6] was 0.666 µM, the IC50 [1] was 0.0603 µM and the IC50 [2] was 3.16 µM.

With `O=C(Nc1ccccc1F)c1cc2cnc(Nc3ccc(N4CCNCC4)cn3)nc2n1C1CCCC1` the inhibition [3] was “Active”, the inhibition [4] was “Active” and the IC50 [5] was 8.37 µM. For the same compound, the IC50 [6] was 0.369 µM, the IC50 [1] was 0.0453 µM and the IC50 [2] was 3.67 µM.

With `O=C(Nc1ccccc1)c1cc2cnc(N3CCN(c4ccc(Cl)cc4)CC3)nc2n1C1CCCC1` the IC50 [1] was > 100 µM and the IC50 [2] was > 200 µM.

`O=C(c1cc2cnc(Nc3ccc(N4CCNCC4)cn3)nc2n1C1CCCC1)N1CCCCC1` showed an IC50 [1] of 0.861 µM and an IC50 [2] of 39.6 µM.

`CN(C)C(=O)c1cc2cnc(NC3CCCCC3)nc2n1C1CCCC1` showed an IC50 [1] of 0.379 µM and an IC50 [2] of 25 µM.

With `CN(C)C(=O)c1cc2cnc(Nc3ccc(N4CCNCC4)cn3)nc2n1Cc1ccccc1` the IC50 [1] was > 100 µM and the IC50 [2] was 30.4 µM.

For `Cc1cc(C)nc(NS(=O)(=O)c2ccc(Nc3ncc4cc(C(=O)N(C)C)n(C5CCCC5)c4n3)cc2)n1`, the Activity [7] was 35.53%, the Activity [8] was 43.39% and the Activity [9] was 44.7%. It also gave an Activity [10] of 27.08%, an Activity [11] of 17.5% and an Activity [12] of 18.44%. For the same compound, the Activity [13] was 37.29%, the Activity [14] was 39.11% and the Activity [15] was 36.86%. The inhibition [16] was 99%, the IC50 [1] was 0.15 µM and the IC50 [2] was 8.25 µM. The solubility [17] was 7.5 µg/mL (≈ 14 µM), the Papp [18] was 3760 nm/s and the Papp [19] was 4430 nm/s. The half-life [20] was > 30 min and the half-life [21] was 25.1 min.

For `COc1ccc(NC(=O)c2cc3cnc(Nc4ccc(N5CCNCC5)cn4)nc3n2C2CCCC2)c(OC)c1`, the IC50 [5] was 3.65 µM, the IC50 [6] was 0.268 µM and the IC50 [1] was 0.0281 µM. For the same compound, the IC50 [2] was 2.23 µM.

In the case of `O=C(Nc1ccccc1Cl)c1cc2cnc(Nc3ccc(N4CCNCC4)cn3)nc2n1C1CCCC1`, the inhibition [3] is reported as “Active”, the inhibition [4] is reported as “Active” and the IC50 [5] is reported as 4.35 µM. It also gave an IC50 [6] of 0.0528 µM, an IC50 [1] of 0.023 µM and an IC50 [2] of 2.17 µM.

Compound `CN(C)C(=O)c1cc2cnc(Nc3cccnc3)nc2n1C1CCCC1` has an IC50 [1] of 0.315 µM and an IC50 [2] of 26 µM.

For `CN(C)C(=O)c1cc2cnc(Nc3ccc(N4CCNCC4)cn3)nc2n1C1CCCC1` [RIBOCICLIB], the Activity [7] was 77.2%, the Activity [8] was 72.41% and the Activity [9] was 66.97%. It also gave an Activity [10] of 4.09%, an Activity [11] of 5.47% and an Activity [12] of 5.5%. The Activity [13] was 18.72%, the Activity [14] was 22.12% and the Activity [15] was 27.53%. For the same compound, the IC50 [5] was 68.4 µM, the IC50 [2] was 10.7 µM and the solubility [17] was > 64 µg/mL. The Papp [18] was 1230 nm/s, the Papp [19] was < 10 nm/s and the half-life [20] was > 30 min. The half-life [21] was 146 min.
